Experimental data as given in patent US20230279023A1, “N/O-Linked Degrons and Degronimers for Protein Degradation” (C4 Therapeutics, Inc., priority 2019, published 2023).
Counter-ions that a name gives are not always drawn.

Target: CRBN-DDB1 (Homo sapiens (Human), UniProt Q96SW2)
Assay: Fluorescence polarization (FP) assay for compound ligand binding to CRBN-DDB1
Details: FP displacement of (−)-Thalidomide-Alexa Fluor or Pomalidomide-fluorescein probe, 400 nM CRBN-DDB1, 5 nM probe
Method: Measuring compound ligand binding to CRBN-DDB1 was carried out using an established sensitive and quantitative in vitro fluorescence polarization (FP) based binding assay. […] Compounds were dispensed from serially diluted DMSO stock into black 384-well compatible fluorescence polarization plates using an Echo acoustic dispenser. Compound binding to CRBN-DDB1 was measured by displacement of either a (−)-Thalidomide-Alexa Fluor® or Pomalidomide-fluorescein conjugated probe dye. […] Matching control wells excluding CRBN-DDB1 were used to correct for background fluorescence. Plates were read on an Envision plate reader with appropriate FP filter sets. The corrected S (perpendicular) and P (parallel) values were used to calculate fluorescence polarization (FP) with the following equation: […]

[1] = Compounds of the Present Invention
[2] = Additional Compounds of the Present Invention

CRBN-DDB1, sequence (Q96SW2 whole entry): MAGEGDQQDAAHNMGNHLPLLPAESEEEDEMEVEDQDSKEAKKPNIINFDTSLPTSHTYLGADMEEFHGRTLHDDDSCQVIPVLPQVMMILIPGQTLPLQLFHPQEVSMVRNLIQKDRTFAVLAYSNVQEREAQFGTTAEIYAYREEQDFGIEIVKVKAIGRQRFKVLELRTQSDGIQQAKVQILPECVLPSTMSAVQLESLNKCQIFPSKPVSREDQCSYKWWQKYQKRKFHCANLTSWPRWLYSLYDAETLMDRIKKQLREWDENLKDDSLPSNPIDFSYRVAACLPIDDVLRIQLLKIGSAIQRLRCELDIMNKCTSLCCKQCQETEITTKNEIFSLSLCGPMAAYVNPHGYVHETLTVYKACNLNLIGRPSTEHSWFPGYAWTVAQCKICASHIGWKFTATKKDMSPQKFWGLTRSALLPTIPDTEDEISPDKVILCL
CRBN-DDB1, sequence (Q16531 whole entry partner): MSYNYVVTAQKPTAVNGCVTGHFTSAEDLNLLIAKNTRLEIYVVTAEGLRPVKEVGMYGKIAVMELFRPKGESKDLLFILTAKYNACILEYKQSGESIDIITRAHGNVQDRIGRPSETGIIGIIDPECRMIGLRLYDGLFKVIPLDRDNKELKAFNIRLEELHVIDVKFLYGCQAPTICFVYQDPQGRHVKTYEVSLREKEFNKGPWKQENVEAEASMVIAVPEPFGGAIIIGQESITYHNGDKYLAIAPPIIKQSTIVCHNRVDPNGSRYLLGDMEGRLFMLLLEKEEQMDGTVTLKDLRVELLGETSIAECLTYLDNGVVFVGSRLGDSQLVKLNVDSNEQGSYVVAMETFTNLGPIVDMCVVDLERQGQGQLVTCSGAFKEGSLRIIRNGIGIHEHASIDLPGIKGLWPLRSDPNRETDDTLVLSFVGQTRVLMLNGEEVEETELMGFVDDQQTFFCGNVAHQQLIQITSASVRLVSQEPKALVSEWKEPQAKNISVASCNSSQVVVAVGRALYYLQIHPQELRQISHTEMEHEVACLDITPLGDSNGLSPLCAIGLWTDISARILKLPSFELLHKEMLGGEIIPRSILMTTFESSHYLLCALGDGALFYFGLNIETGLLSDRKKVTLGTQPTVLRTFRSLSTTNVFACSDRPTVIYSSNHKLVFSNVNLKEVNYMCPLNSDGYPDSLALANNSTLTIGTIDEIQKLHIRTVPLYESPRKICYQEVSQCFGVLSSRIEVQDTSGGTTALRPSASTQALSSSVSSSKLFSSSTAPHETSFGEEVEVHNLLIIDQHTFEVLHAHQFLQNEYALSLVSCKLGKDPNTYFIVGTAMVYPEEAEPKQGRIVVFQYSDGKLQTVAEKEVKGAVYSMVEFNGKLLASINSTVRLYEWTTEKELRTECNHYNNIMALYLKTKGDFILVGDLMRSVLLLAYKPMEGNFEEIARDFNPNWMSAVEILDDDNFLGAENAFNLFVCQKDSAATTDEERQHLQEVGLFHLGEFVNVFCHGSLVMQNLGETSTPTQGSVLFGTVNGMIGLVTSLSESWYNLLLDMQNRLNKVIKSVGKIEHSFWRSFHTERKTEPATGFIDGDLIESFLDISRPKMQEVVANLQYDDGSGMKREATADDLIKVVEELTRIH

| SMILES | Kd [1] [µM] | also measured |
| --- | --- | --- |
| O=C1CCC(Oc2ccc(C3CCCC3)cc2)C(=O)N1 (stereo not shown) [Compound 152] | – | Kd [2]: < 10 µM |
| CN(CC(=O)O)C1CCC(=O)NC1=O (stereo not shown) [Compound 107] | > 100 | – |
| N#Cc1c[nH]nc1NC1CCC(=O)NC1=O (stereo not shown) [Compound 96] | > 100 | – |
| O=C1CCC(Oc2ccccc2C(=O)N2CCCC2)C(=O)N1 (stereo not shown) [Compound 136] | – | Kd [2]: > 100 µM |
| O=C1CCC(Oc2ccc3c(c2)CCCC3=O)C(=O)N1 (stereo not shown) [Compound 148] | – | Kd [2]: < 10 µM |
| O=C1CCC(Oc2cccc3cccnc23)C(=O)N1 (stereo not shown) [Compound 147] | – | Kd [2]: < 10 µM |
| Cc1nnc2n1-c1ccc(-c3cnn(CCCCCCN4CCN(c5ccc(NC6CCC(=O)NC6=O)cc5)CC4)c3)cc1C(c1ccc(Cl)cc1)=NC21CC1 (stereo not shown) [Degronimer 2, 3-((4-(4-(6-(4-(6-(4-chlorophenyl)-1-methylspiro[benzo[f][1,2,4]triazolo[4,3-a][1,4]diazepine-4,1′-cyclopropan]-8-yl)-1H-pyrazol-1-yl)hexyl)piperazin-1-yl)phenyl)amino)piperidine-2,6-dione] | – | Kd (Degronimers): < 10 µM |
| O=C1CCC(Oc2ccc3ccccc3c2)C(=O)N1 (stereo not shown) [Compound 135] | – | Kd [2]: < 10 µM |
| CC1(C)Cc2cccc(OC3CCC(=O)NC3=O)c2O1 (stereo not shown) [Compound 145] | – | Kd [2]: < 10 µM |
| O=C1CCC(Oc2ccc3c(c2)OCO3)C(=O)N1 (stereo not shown) [Compound 149] | – | Kd [2]: < 10 µM |
| CC(=O)CCc1ccc(OC2CCC(=O)NC2=O)cc1 (stereo not shown) [Compound 154] | – | Kd [2]: < 10 µM |
| N#Cc1ccc(-c2ccc(OC3CCC(=O)NC3=O)cc2)cc1 (stereo not shown) [Compound 139] | – | Kd [2]: < 10 µM |
| O=C1CCC(NC2CC(=O)N(c3ccccc3)C2)C(=O)N1 (stereo not shown) [Compound 99] | > 100 | – |
| CN1CC(N(C)C2CCC(=O)NC2=O)C1 (stereo not shown) [Compound 102] | > 100 | – |
| O=C1CCC(Oc2ccc(N3CCNCC3)cc2)C(=O)N1 (stereo not shown) [Compound 133, 3-(4-Piperazin-1-yl-phenoxy)-piperidine-2,6-dione hydrochloride] | – | Kd [2]: < 10 µM |
| N#Cc1cccc(NC2CCC(=O)NC2=O)c1 (stereo not shown) [Compound 56] | < 10 | – |
| COc1cc(NC2CCC(=O)NC2=O)cc(C(F)(F)F)c1 (stereo not shown) [Compound 29] | < 10 | – |
| CN(c1ccc(Cl)c(Cl)c1)C1CCC(=O)NC1=O (stereo not shown) [Compound 60] | < 10 | – |
| CN1CCC(N(C)C2CCC(=O)NC2=O)CC1=O (stereo not shown) [Compound 106] | > 100 | – |

| SMILES | Kd [1] [µM] | also measured |
| --- | --- | --- |
| Cn1ccc2cc(NC3CCC(=O)NC3=O)ccc21 (stereo not shown) [Compound 51] | < 10 | – |
| O=C1CCC(OC2CCN(c3ccccc3)CC2)C(=O)N1 (stereo not shown) [Compound 134, 3-(1-Phenyl-piperidin-4-yloxy)-piperidine-2,6-dione] | – | Kd [2]: > 100 µM |
| Cc1ccc(C#N)cc1NC1CCC(=O)NC1=O (stereo not shown) [Compound 68] | > 100 | – |
| O=C1CCC(Nc2cccc(Cl)c2)C(=O)N1 (stereo not shown) [Compound 40] | < 10 | – |
| CCc1ccc(OC2CCC(=O)NC2=O)cc1 (stereo not shown) [Compound 137] | – | Kd [2]: < 10 µM |
| O=C1CCC(Nc2ccc(F)cc2Cl)C(=O)N1 (stereo not shown) [Compound 43] | < 10 | – |
| CC(C)(C)c1ccccc1NC1CCC(=O)NC1=O (stereo not shown) [Compound 41] | < 10 | – |
| CC(C)(C)OC(=O)n1cc(C#N)c(NC2CCC(=O)NC2=O)n1 (stereo not shown) [Compound 95] | > 100 | – |
| CC(C)(C)OC(=O)N1CCc2cc(NC3CCC(=O)NC3=O)ccc2C1 (stereo not shown) [Compound 79] | < 10 | – |
| O=C1C=C(Nc2ccccc2)C(=O)N1 [Compound 112] | > 100 | – |
| CN(c1ccccc1)C1CCC(=O)NC1=O (stereo not shown) [Compound 1] | < 10 | – |
| COc1ccc(NC2CCC(=O)NC2=O)c(OC)c1 (stereo not shown) [Compound 70] | < 10 | – |
| O=C1CCC(Nc2ccccc2Cl)C(=O)N1 (stereo not shown) [Compound 49] | < 10 | – |
| CN(c1ccc(C(F)(F)F)cc1)C1CCC(=O)NC1=O (stereo not shown) [Compound 59] | < 10 | – |
| CC(C)(C)OC(=O)N1CCN(C2=CC(=O)NC2=O)CC1 [Compound 111] | > 100 | – |
| CN1CCN(c2ccc(NC3CCC(=O)NC3=O)cc2)CC1 (stereo not shown) [Compound 66] | < 10 | – |
| CN1CCN(c2ccc(OC3CCC(=O)NC3=O)cc2)CC1 (stereo not shown) [Compound 126] | < 10 | – |
| O=C1CCC(Nc2ccccc2OC(F)F)C(=O)N1 (stereo not shown) [Compound 55] | < 10 | – |
| O=C1CCC(Nc2ccccc2F)C(=O)N1 (stereo not shown) [Compound 53] | < 10 | – |

Now from value to molecule, other results behind:

| Kd [1] [µM] | SMILES | also measured |
| --- | --- | --- |
| < 10 | Cc1ccc(NC2CCC(=O)NC2=O)cc1C#N (stereo not shown) [Compound 12] | – |
| < 10 | O=C1CCC(Nc2cccc(Oc3ccccc3)c2)C(=O)N1 (stereo not shown) [Compound 30] | – |
| < 10 | O=C1CCC(Nc2ccccc2Oc2ccccc2)C(=O)N1 (stereo not shown) [Compound 23] | – |
| < 10 | O=C1CCC(Nc2ccc(N3CCOCC3)cc2)C(=O)N1 (stereo not shown) [Compound 67] | – |
| < 10 | O=C1CCC(Nc2cc(F)ccc2Cl)C(=O)N1 (stereo not shown) [Compound 45] | – |
| < 10 | COc1cccc(N(C)C2CCC(=O)NC2=O)c1 (stereo not shown) [Compound 16] | – |
| < 10 | O=C1CCC(Nc2cccc(-c3ccccc3)c2)C(=O)N1 (stereo not shown) [Compound 3] | – |
| < 10 | O=C1CCC(Nc2ccccc2-c2ccccc2)C(=O)N1 (stereo not shown) [Compound 5] | – |
| < 10 | O=C1CCC(Nc2cccc(N3CCNCC3)c2)C(=O)N1 (stereo not shown) [Compound 86] | – |
| < 10 | COc1cc(F)ccc1NC1CCC(=O)NC1=O (stereo not shown) [Compound 10] | – |
| < 10 | O=C1CCC(Nc2cccc(N3CCOCC3)c2)C(=O)N1 (stereo not shown) [Compound 64] | – |
| < 10 | O=C1CCC(Nc2ccc(-c3ccccc3)cc2)C(=O)N1 (stereo not shown) [Compound 6] | – |
| < 10 | CN(c1cccc(C(F)(F)F)c1)C1CCC(=O)NC1=O (stereo not shown) [Compound 58] | – |
| < 10 | COc1cccc(NC2CCC(=O)NC2=O)c1 (stereo not shown) [Compound 13] | – |
| < 10 | O=C1CCC(Nc2ccc(CN3CCOCC3)cc2)C(=O)N1 (stereo not shown) [Compound 27] | – |
| < 10 | COc1ccc(NC2CCC(=O)NC2=O)c(C)c1 (stereo not shown) [Compound 36] | – |
| < 10 | CN(c1cccc(N2CCN(C(=O)OC(C)(C)C)CC2)c1)C1CCC(=O)NC1=O (stereo not shown) [Compound 88] | – |
| < 10 | COc1ccc(C)cc1NC1CCC(=O)NC1=O (stereo not shown) [Compound 42] | – |
| < 10 | O=C1CCC(Nc2cccc(C(F)(F)F)c2)C(=O)N1 (stereo not shown) [Compound 35] | – |
| < 10 | COc1ccc(NC2CCC(=O)NC2=O)cc1Cl (stereo not shown) [Compound 46] | – |
| < 10 | COc1cc(Cl)ccc1NC1CCC(=O)NC1=O (stereo not shown) [Compound 47] | – |
| < 10 | COc1ccc(NC2CCC(=O)NC2=O)cc1 (stereo not shown) [Compound 52] | – |
| < 10 | CN(c1cccc(F)c1)C1CCC(=O)NC1=O (stereo not shown) [Compound 33] | – |
| < 10 | COc1ccc(NC2CCC(=O)NC2=O)c(F)c1 (stereo not shown) [Compound 11] | – |
| < 10 | O=C1CCC(Nc2cccc3ccccc23)C(=O)N1 (stereo not shown) [Compound 77] | – |
| < 10 | Cc1ccccc1NC1CCC(=O)NC1=O (stereo not shown) [Compound 50] | – |
